PMC5435703 (Scientific Reports, 2017)
Values after ≈ are worked out from the molar mass of the structure shown. Read-outs that look alike come from different tables or passages of the source.

Legend:
[1] = Hemolysis assay with red blood cells; conditions: human, pH 7.2
MRSE 35984 [2] = assay: MIC broth microdilution assay; format: cell-based, Staphylococcus epidermidis; conditions: Staphylococcus epidermidis, MRSE
MRSA-2 = assay: MIC broth microdilution assay; format: cell-based, Staphylococcus aureus; conditions: Staphylococcus aureus, MRSA; Table 1; read-out: MIC MRSA-2
[3] = Chemical stability in aqueous formulations; format: physicochemical; conditions: room temperature
MRSA BAA-1707 [4] = assay: Calgary Biofilm Device (CBD) MBC/MBEC assay; format: cell-based, Staphylococcus aureus; conditions: Staphylococcus aureus, 24 h
MRSA BAA-44 = assay: MIC broth microdilution assay; format: cell-based; conditions: Staphylococcus aureus
MRSE 35984 [5] = assay: Calgary Biofilm Device (CBD) MBC/MBEC assay; format: cell-based, Staphylococcus epidermidis
S. epi 12228 = assay: MIC broth microdilution assay; format: cell-based, Staphylococcus epidermidis; conditions: Staphylococcus epidermidis, 12228; Table 1; read-out: MIC S. epi 12228
VRE 700221 = assay: MIC broth microdilution assay; format: cell-based, Enterococcus faecium; conditions: Enterococcus, VRE
MtB H37Ra = assay: MIC assay for Mycobacterium tuberculosis; format: cell-based; conditions: 168 h, seven days
HeLa cells = assay: LDH release assay for HeLa cytotoxicity; format: cell-based; conditions: 100 µM
[6] = LDH release assay for HeLa cytotoxicity; format: cell-based; conditions: human, HeLa cells; LDH release, 24 hours; tested at 25, 50 and 100 µM; read-out: HeLa Cytotox. IC50
MRSA-1 = assay: MIC broth microdilution assay; format: cell-based, Staphylococcus aureus; conditions: Staphylococcus aureus, MRSA
MRSA BAA-1707 [7] = assay: MIC broth microdilution assay; format: cell-based, Staphylococcus aureus; conditions: Staphylococcus aureus
MRSA BAA-1707 [8] = assay: MIC assay with metal(II) cation co-treatment; format: cell-based, Staphylococcus aureus
[9] = Table 1, read-out: MIC MRSE 35984
[10] = Table 3, read-out: MRSE 35984 MIC
[11] = Table 1, read-out: MIC MRSA BAA-44
[12] = supplement page 28, single CBD plate

COCCOCCOCCOCCOC(=O)Oc1c(Br)cc(Br)c2nc3ccccc3nc12 [HP 24]
hemolysis at 1 h, 200 µM [1]: 2.4%
MIC (MRSE 35984 [2]; [9]): 1560 nM (≈ 0.918 µg/mL)
MIC (MRSE 35984 [2]; [10]): 1560 nM (≈ 0.918 µg/mL)
MIC (MRSA-2): 2350 nM (≈ 1.38 µg/mL)
chemically stable in aqueous formulations [3]: > 1 month
MBC (MRSA BAA-1707 [4]; CBD, planktonic killing, 24 hours treatment, read-out: MRSA BAA-1707 MBC): 75000 nM (≈ 44.1 µg/mL)
MBC (MRSA BAA-1707 [4]; supplement page 27, second CBD plate, read-out: MRSA Planktonic Killing MBC): 100000 nM (≈ 58.8 µg/mL)
MIC (MRSA BAA-44; single plate shown as picture, read-out: MIC (µM), MIC Assay Against MRSA BAA-44): 1.56 µM (≈ 0.918 µg/mL)
MIC (MRSA BAA-44; [11]): 1.56 µM (≈ 0.918 µg/mL)
MBC (MRSE 35984 [5]; Staphylococcus epidermidis, MRSE, CBD, planktonic killing, read-out: MRSE 35984 MBC): 75000 nM (≈ 44.1 µg/mL)
MRSE Biofilm Eradication MBEC (MRSE 35984 [5]; [12]): 100 µM
MRSE Planktonic Killing MBC (MRSE 35984 [5]; [12]): 50000 nM
MIC (S. epi 12228): 780 nM (≈ 0.459 µg/mL)
MIC (VRE 700221; Table 1, read-out: MIC VRE 700221): 6250 nM (≈ 3.68 µg/mL)
MIC (VRE 700221; Table 3, read-out: VRE 700221 MIC): 6250 nM (≈ 3.68 µg/mL)
MIC (MtB H37Ra): 25000 nM (≈ 14.7 µg/mL)
HeLa cell cytotoxicity at 100 µM (HeLa cells): no HeLa cell cytotoxicity
IC50 at 24 h [6]: > 100 µM

COCCOCCOCCOCCOC(=O)Oc1c(Br)cc(Br)c2nc3c(C)cccc3nc12 [HP 25]
hemolysis at 1 h, 200 µM [1]: ≤ 1%
MIC (MRSE 35984 [2]; [9]): 150 nM (≈ 0.0903 µg/mL)
MIC (MRSE 35984 [2]; [10]): 150 nM (≈ 0.0903 µg/mL)
MIC (MRSA-2): ≤ 100 nM
chemically stable in aqueous formulations [3]: > 1 month
MIC (MRSA-1; Table 1, read-out: MIC MRSA-1): ≤ 0.1 µM
MIC (MRSA-1; single plate shown as picture, read-out: MIC (µM), MIC Assay Against MRSA-1): 0.1 µM (≈ 0.0602 µg/mL)
MIC (MRSA BAA-44; [11]): 0.013 µM (≈ 0.00783 µg/mL)
MIC (S. epi 12228): ≤ 100 nM
MIC (MtB H37Ra): 12500 nM (≈ 7.53 µg/mL)
MIC (MRSA BAA-1707 [7]; Table 1, three independent experiments, read-out: MIC MRSA BAA-1707): 0.003 µM (≈ 0.00181 µg/mL)
MIC (MRSA BAA-1707 [7]; Table 3, read-out: MRSA BAA-1707 MIC): 0.003 µM (≈ 0.00181 µg/mL)
MIC (MRSA BAA-1707 [7]; single plate shown as picture, read-out: MIC (µM), MIC Assay against MRSA BAA-1707): 0.003 µM (≈ 0.00181 µg/mL)
HeLa cell cytotoxicity at 100 µM (HeLa cells): no HeLa cell cytotoxicity
IC50 at 24 h [6]: > 100 µM
MIC (MRSA BAA-1707 [8]; Staphylococcus aureus, Cu(II) co-treatment plate, lanes without metal, read-out: MIC): 0.1 µM
MIC (MRSA BAA-1707 [8]; Staphylococcus aureus, Fe(II) co-treatment plate, lanes without metal, read-out: MIC): 0.1 µM
MIC (MRSA BAA-1707 [8]; Staphylococcus aureus, Mg(II) co-treatment plate, lanes without metal, read-out: MIC): 0.003 µM
MIC (MRSA BAA-1707 [8]; Staphylococcus aureus, Table 2, MRSA BAA-1707, no metal(II) cation added, read-out: MIC): 0.0047 µM
MIC (MRSA BAA-1707 [8]; Staphylococcus aureus, Zn(II) extended plate assay, lanes without metal, read-out: MIC): 0.003 µM
MIC (MRSA BAA-1707 [8]; Staphylococcus aureus, copper(II) at 200 µM co-treatment, read-out: MIC w/Cu2+): > 100 µM
MIC (MRSA BAA-1707 [8]; Staphylococcus aureus, iron(II) at 200 µM co-treatment, read-out: MIC w/Fe2+): 25 µM
MIC (MRSA BAA-1707 [8]; Staphylococcus aureus, magnesium(II) at 200 µM co-treatment, read-out: MIC w/Mg2+): 0.0047 µM
MIC (MRSA BAA-1707 [8]; Staphylococcus aureus, single plate, 200 µM Cu(II), read-out: MIC (µM) + Cu(II)): > 100 µM
MIC (MRSA BAA-1707 [8]; Staphylococcus aureus, single plate, 200 µM Fe(II), read-out: MIC (µM) + Fe(II)): 25 µM
MIC (MRSA BAA-1707 [8]; Staphylococcus aureus, single plate, 200 µM Mg(II), read-out: MIC (µM) + Mg(II)): 0.003 µM
MIC (MRSA BAA-1707 [8]; Staphylococcus aureus, zinc(II) at 200 µM co-treatment, read-out: MIC w/Zn2+): 7e-05 µM
MIC (MRSA BAA-1707 [8]; extended plate assay, 200 µM Zn(II), read-out: MIC (µM) + Zn(II)): 0.00005 µM
